Test results reported in patent US8912216B2, “Hetaryl-[1,8]naphthyridine derivatives” (Merck Patent GmbH, priority 2010, dated 2014).

Legend:
GST-ALK5 = molecular target: T1, GST-ALK5 (Homo sapiens, UniProt P36897); assay: In-vitro (enzyme) kinase assay, 384-well flashplate (Example 36); assay type: biochemical; details: GST-ALK5, GST-SMAD2 substrate, 3 mM ATP, 30° C., 45 min; read-out: TβR activity (Example 36)
T1 sequence (P36897 34-503): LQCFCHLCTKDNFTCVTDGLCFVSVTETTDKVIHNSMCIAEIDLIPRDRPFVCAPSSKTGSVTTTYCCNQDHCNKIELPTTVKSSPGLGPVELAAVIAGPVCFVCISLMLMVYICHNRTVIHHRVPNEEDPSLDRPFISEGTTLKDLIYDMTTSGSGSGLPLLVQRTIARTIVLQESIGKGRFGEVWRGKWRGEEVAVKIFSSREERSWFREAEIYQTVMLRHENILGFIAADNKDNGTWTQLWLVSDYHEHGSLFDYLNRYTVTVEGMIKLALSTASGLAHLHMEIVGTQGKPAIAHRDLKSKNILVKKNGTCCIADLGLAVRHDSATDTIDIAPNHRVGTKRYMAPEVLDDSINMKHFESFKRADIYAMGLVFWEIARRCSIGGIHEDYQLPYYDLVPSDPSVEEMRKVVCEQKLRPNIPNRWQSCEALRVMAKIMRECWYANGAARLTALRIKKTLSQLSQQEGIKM
Procedure, shortened: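 Radiometric flashplate assay: 31.2 nM GST-ALK5 phosphorylating 439 nM GST-SMAD2 with 3 mM ATP plus ³³P-ATP, in HEPES/MgCl2/MnCl2/DTT/BSA buffer pH 7.4, 45 min at 30 °C, 5-10 compound concentrations. EDTA stop, filtration and washing, then radioactivity counted; IC50 derived from the curve.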

[1] = test system: TGF-beta-induced phosphorylation of Smad2 and Smad3 in Mv1-Lu cells; assay: Inhibition of Smad2/3 phosphorylation in Mv1Lu cells (Example 35A); assay type: cell-based, mink Mustela vison; details: Neogale vison, Mv1-Lu cells, TGF-beta 1 5 ng/ml, phospho-Smad2/3 ELISA, read-out: TβR activity (Example 35A)
Procedure, shortened: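 Serum-starved (16-20 h) Mv1-Lu mink lung epithelial cells were pre-incubated 1.5 h with compound dilutions (0.2% DMSO), then stimulated 1 h with 5 ng/ml TGF-beta 1. Phospho-Smad2 (Ser465/467)/Smad3 (Ser423/425) in lysates was measured by ELISA. IC50 came from dose-response fits between stimulated and unstimulated controls.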

Q: How did the IC50 (GST-ALK5) turn out when Fc1ccc(Cl)cc1-c1cc(-c2cncc(-c3ccc4c(c3)CCNC4)c2)c2cccnc2n1 [compound 155, 2-(5-Chloro-2-fluoro-phenyl)-4-[5-(1,2,3,4-tetrahydro-isoquinolin-6-yl)-pyridin-3-yl]-[1,8]naphthyridine] was run?
A: The IC50 was under 100 nM.

Q: And the IC50 [1]?
A: The IC50 was under 100 nM.

Q: Which IC50 (GST-ALK5) does the source give for Fc1ccc(Cl)cc1-c1cc(-c2cncc(-c3ccc(OCCN4CCCC4)cc3)c2)c2cccnc2n1 [compound 156, 2-(5-Chloro-2-fluoro-phenyl)-4-{5-[4-(2-pyrrolidin-1-yl-ethoxy)-phenyl]-pyridin-3-yl}-[1,8]naphthyridine] here?
A: Its IC50 is under 100 nM.

Q: What about the IC50 [1] of the same molecule?
A: The IC50 was under 100 nM.

Q: For CC1(C)CC(=O)Nc2ccc(-c3cncc(-c4cc(-c5cc(Cl)ccc5F)nc5ncccc45)c3)cc21 [compound 157, 6-{5-[2-(5-Chloro-2-fluoro-phenyl)-[1,8]naphthyridin-4-yl]-pyridin-3-yl}-4,4-dimethyl-3,4-dihydro-1H-quinolin-2-one], which IC50 (GST-ALK5) is on record?
A: Its IC50 is 100 to 1000 nM.

Q: And the IC50 [1]?
A: The IC50 was 100 to 1000 nM.

Q: Which results are given for Fc1ccc(Cl)cc1-c1cc(-c2cncc(-c3cccc(OCCN4CCCC4)c3)c2)c2cccnc2n1 [compound 158, 2-(5-Chloro-2-fluoro-phenyl)-4-{5-[3-(2-pyrrolidin-1-yl-ethoxy)-phenyl]-pyridin-3-yl}-[1,8]naphthyridine]?
A: IC50 (GST-ALK5): < 100 nM; IC50 [1]: < 100 nM

Q: With Fc1ccc(Cl)cc1-c1cc(-c2cncc(-c3cccc(C4CCNCC4)c3)c2)c2cccnc2n1 [compound 159, 2-(5-Chloro-2-fluoro-phenyl)-4-[5-(3-piperidin-4-yl-phenyl)-pyridin-3-yl]-[1,8]naphthyridine] as the molecule, how does the IC50 (GST-ALK5) read?
A: The IC50 was under 100 nM.

Q: And the IC50 [1]?
A: The IC50 was 100 to 1000 nM.

Q: Which IC50 (GST-ALK5) does the source give for N#Cc1cccc(-c2cncc(-c3cc(-c4cc(Cl)ccc4F)nc4ncccc34)c2)n1 [compound 160, 5′-[2-(5-Chloro-2-fluoro-phenyl)-[1,8]naphthyridin-4-yl]-[2,3′]bipyridinyl-6-carbonitrile] here?
A: Its IC50 is over 10000 nM.

Q: What about the IC50 [1] of the same molecule?
A: Its IC50 is over 10000 nM.

Q: Which results are given for Fc1ccc(Cl)cc1-c1cc(-c2cncc(-c3ccc(OCCN4CCOCC4)cc3)c2)c2cccnc2n1 [compound 161, 2-(5-Chloro-2-fluoro-phenyl)-4-{5-[4-(2-morpholin-4-yl-ethoxy)-phenyl]-pyridin-3-yl}-[1,8]naphthyridine]?
A: IC50 (GST-ALK5): < 100 nM; IC50 [1]: < 100 nM

Q: For CN(C)CCc1ccc(-c2cncc(-c3cc(-c4cc(Cl)ccc4F)nc4ncccc34)c2)cc1 [compound 162, [2-(4-{5-[2-(5-Chloro-2-fluoro-phenyl)-[1,8]naphthyridin-4-yl]-pyridin-3-yl}-phenyl)-ethyl]-dimethyl-amine], which IC50 (GST-ALK5) is on record?
A: Its IC50 is under 100 nM.

Q: What about the IC50 [1] of the same molecule?
A: Its IC50 is under 100 nM.

Q: Which results are given for CN1CCc2ccc(-c3cncc(-c4cc(-c5cc(Cl)ccc5F)nc5ncccc45)c3)cc2C1 [compound 163, 2-(5-Chloro-2-fluoro-phenyl)-4-[5-(2-methyl-1,2,3,4-tetrahydro-isoquinolin-7-yl)-pyridin-3-yl]-[1,8]naphthyridine]?
A: IC50 (GST-ALK5): < 100 nM; IC50 [1]: < 100 nM

Q: What does the source list for CC(=O)N1CCc2cc(-c3cncc(-c4cc(-c5cc(Cl)ccc5F)nc5ncccc45)c3)ccc21 [compound 164, 1-(5-{5-[2-(5-Chloro-2-fluoro-phenyl)-[1,8]naphthyridin-4-yl]-pyridin-3-yl}-2,3-dihydro-indol-1-yl)-ethanone]?
A: IC50 (GST-ALK5): < 100 nM; IC50 [1]: < 100 nM

Q: For O=C1CCc2cc(-c3cncc(-c4cc(-c5cc(Cl)ccc5F)nc5ncccc45)c3)cnc2N1 [compound 165, 6-{5-[2-(5-Chloro-2-fluoro-phenyl)-[1,8]naphthyridin-4-yl]-pyridin-3-yl}-3,4-dihydro-1H-[1,8]naphthyridin-2-one], which IC50 (GST-ALK5) is on record?
A: Its IC50 is under 100 nM.

Q: What about the IC50 [1] of the same molecule?
A: Its IC50 is under 100 nM.

Q: For NCCc1cccc(-c2cncc(-c3cc(-c4cc(Cl)ccc4F)nc4ncccc34)c2)c1 [compound 166, 2-(3-{5-[2-(5-Chloro-2-fluoro-phenyl)-[1,8]naphthyridin-4-yl]-pyridin-3-yl}-phenyl)-ethylamine], which IC50 (GST-ALK5) is on record?
A: Its IC50 is under 100 nM.

Q: And the IC50 [1]?
A: The IC50 was under 100 nM.

Q: How did the IC50 (GST-ALK5) turn out when Nc1ncc(-c2cc(-c3cc(Cl)ccc3F)nc3ncccc23)c2ccncc12 [compound 167, 4-[2-(5-Chloro-2-fluoro-phenyl)-[1,8]naphthyridin-4-yl]-[2,7]naphthyridin-1-ylamine] was run?
A: Its IC50 is under 100 nM.

Q: What about the IC50 [1] of the same molecule?
A: The IC50 was under 100 nM.
